Results from publication PMC6178282, “Comparative cell biological study of in vitro antitumor and antimetastatic activity on melanoma cells of GnRH-III-containing conjugates modified with short-chain fatty acids” (Beilstein Journal of Organic Chemistry, 2018).
Where two headings read alike, the source gives them in different places.

Tested on: A2058 melanoma cells
Experiment: xCELLigence impedance-based long-term antiproliferative/cytotoxic measurement
Assay type: cell-based, human
Conditions: for IC50: Homo sapiens
Text: One of the major requirements for a drug-delivery conjugate is the ability to provide the antitumor activity of the attached drug inside the cells. The antiproliferative/cytotoxic effect of conjugates was investigated by an impedimetric technique, xCELLigence System (ACEA Biosciences, San Diego, CA, USA). The real-time measurement of the impedance change, which is in direct correlation with the number of adhered cells on an electrode surface, makes this impedimetric assay sensitive enough for cytotoxicity experiments. In the event of a cytotoxic compound, the cells detach from the electrode surface and a drop in the impedance – given as Cell index values – could be observed.
IC50 values – a concentration that decreases the cell viability by 50% – were calculated from Cell index values obtained at 48 h and 72 h for each concentration and used for comparing the effects of conjugates. It is clearly seen that the presence of acylated Lys could increase almost 10-fold the antitumor activity (p < 0.001) of parent conjugate (GnRH-III(Dau=Aoa)). […]
Cell proliferation and cytotoxicity measurement
The antiproliferative/cytotoxic effect of conjugates compared with Dau was assessed using the xCELLigence SP System (ACEA Biosciences, San Diego, CA, USA). This system uses a so-called E-plate having gold microelectrodes covered the surface of each well and quantifies different cellular activities (e.g. cell proliferation, cell adhesion) by real-time measuring the impedance. The detected impedance change is in direct correlation with the cell number or the electrode surface covered by the attached cells. A relative and dimensionless parameter, Cell index (CI), was calculated from the detected impedance change by the following formula: […]
where Zi is the impedance at a given time point, Z0 is the impedance at t = 0 h, and Fi is a constant depending on the frequency (F10kHz = 15). […]
For the treatment of the cells, the conjugates and the free drug were applied in 10−12–10−4 M final concentrations and the cells were monitored for further 72 h. […]
In order to evaluate whether the conjugates could elicit their antiproliferative/cytotoxic character in short-term, A2058 cells (10^4 cells/well) were seeded in 96-well plate 24 h before the treatment. […] After treating the cells with compounds in 10−6–10−5 M concentrations, where their most significant cytotoxic effect was detected in case of the long-term treatments, the cells were washed twice with serum-free medium and cultured for further 48 h in serum-containing medium. The viability of cells was determined by alamarBlue-assay (Thermo Fisher Scientific, Waltham, MA, USA) according to the manufacturer’s instruction. After 4 h incubation with the alamarBlue® reagent, the fluorescence intensity of the reaction product

[1] = A2058 cells, Cell index time course, Figure S5

`COc1cccc2c1C(=O)c1c(O)c3c(c(O)c1C2=O)C[C@@](O)(C(C)=O)C[C@@H]3O[C@H]1C[C@H](N)[C@H](O)[C@H](C)O1` [daunorubicin] was tested, and the “concentrations at which the tumor-growth inhibitory effect was elicited (time-course study)” value [1] was 10^–6 to 10^−4 M, the “time after treatment at which the effect on Cell index set in” value [1] was 0 to 5 h and the IC50 (A2058, 48 h, read-out: 48 h IC50) was 190 ± 17 nM. The IC50 (A2058, 72 h, read-out: 72 h IC50) was 53 ± 9 nM.
